Counter-ions that a name gives are not always drawn.
Target: rat TRPV1 (Rattus norvegicus (Rat), UniProt O35433)
Conditions: read-out: Rat IC50

rat TRPV1, sequence (O35433 whole entry): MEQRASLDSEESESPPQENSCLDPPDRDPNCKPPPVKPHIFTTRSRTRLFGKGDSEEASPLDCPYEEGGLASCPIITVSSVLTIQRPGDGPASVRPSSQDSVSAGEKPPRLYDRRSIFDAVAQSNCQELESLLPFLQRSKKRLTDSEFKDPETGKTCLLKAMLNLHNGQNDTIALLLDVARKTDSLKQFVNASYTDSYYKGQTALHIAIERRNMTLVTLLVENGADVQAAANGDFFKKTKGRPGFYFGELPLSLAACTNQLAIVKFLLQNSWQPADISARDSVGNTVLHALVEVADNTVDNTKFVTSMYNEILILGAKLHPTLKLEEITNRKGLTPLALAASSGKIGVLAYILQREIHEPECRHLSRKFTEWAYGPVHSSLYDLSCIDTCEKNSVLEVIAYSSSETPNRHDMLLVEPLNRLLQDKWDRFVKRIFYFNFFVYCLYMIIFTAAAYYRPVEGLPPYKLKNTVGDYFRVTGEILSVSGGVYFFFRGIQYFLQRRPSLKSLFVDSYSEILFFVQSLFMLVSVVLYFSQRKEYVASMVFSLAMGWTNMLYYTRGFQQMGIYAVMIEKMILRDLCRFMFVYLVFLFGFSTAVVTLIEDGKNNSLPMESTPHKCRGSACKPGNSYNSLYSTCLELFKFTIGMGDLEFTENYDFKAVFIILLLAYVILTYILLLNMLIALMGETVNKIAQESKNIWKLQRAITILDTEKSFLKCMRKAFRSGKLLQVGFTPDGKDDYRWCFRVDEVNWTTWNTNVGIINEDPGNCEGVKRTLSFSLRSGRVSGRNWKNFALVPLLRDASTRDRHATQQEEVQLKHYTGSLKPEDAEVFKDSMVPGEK

FC(F)(F)c1ccc(Nc2nc(OC3CCOC3)nc3c2CCN(c2ncccc2C(F)(F)F)CC3)cc1 (stereo not shown) [Example 340, 2-(Tetrahydrofuran-3-yloxy)-N-[4-(trifluoromethyl)phenyl]-7-[3-(trifluoromethyl)pyridin-2-yl]-6,7,8,9-tetrahydro-5H-pyrimido[4,5-d]azepin-4-amine]
IC50: 260 nM

CC(C)Oc1nc2c(c(Nc3ccc(C(F)(F)F)cc3)n1)CCN(c1ncccc1C(F)(F)F)CC2 [Example 341, 2-[(1-Methylethyl)oxy]l-N-[4-(trifluoromethyl)phenyl]-7-[3-(trifluoromethyl)pyridin-2-yl]-6,7,8,9-tetrahydro-5H-pyrimido[4,5-d]azepin-4-amine trifluoroacetic acid salt]
IC50: 150 nM

FC(F)(F)c1ccc(Nc2nc(Oc3ccccc3)nc3c2CCN(c2ncccc2C(F)(F)F)CC3)cc1 [Example 342, 2-(Phenyloxy)-N-[4-(trifluoromethyl)phenyl]-7-[3-(trifluoromethyl)pyridin-2-yl]-6,7,8,9-tetrahydro-5H-pyrimido[4,5-d]azepin-4-amine trifluoroacetic acid salt]
IC50: 60 nM

CCCCOc1nc2c(c(Nc3ccc(C(F)(F)F)cc3)n1)CCN(c1ncccc1C(F)(F)F)CC2 [Example 343, 2-(Butyloxy)-N-[4-(trifluoromethyl)phenyl]-7-[3-(trifluoromethyl)pyridin-2-yl]-6,7,8,9-tetrahydro-5H-pyrimido[4,5-d]azepin-4-amine]
IC50: 60 nM

CCOc1nc2c(c(Nc3ccc(C(F)(F)F)cc3)n1)CCN(c1ncccc1C(F)(F)F)CC2 [Example 345, 2-(Ethyloxy)-N-[4-(trifluoromethyl)phenyl]-7-[3-(trifluoromethyl)pyridin-2-yl]-6,7,8,9-tetrahydro-5H-pyrimido[4,5-d]azepin-4-amine trifluoroacetic acid salt]
IC50: 190 nM

COCc1nc2c(c(Nc3ccc(C(F)(F)F)nc3)n1)CCN(c1ncccc1C(F)(F)F)CC2 [Example 346, 2-[(Methyloxy)methyl]-7-[3-(trifluoromethyl)pyridin-2-yl]-N-[6-(trifluoromethyl)pyridin-3-yl]-6,7,8,9-tetrahydro-5H-pyrimido[4,5-d]azepin-4-amine trifluoroacetic acid salt]
IC50: > 6670 nM

COCc1nc2c(c(Nc3ccc(C(C)(C)C#N)cc3)n1)CCN(c1ncccc1C(F)(F)F)CC2 [Example 347, 2-Methyl-2-[4-({2-[(methyloxy)methyl]-7-[3-(trifluoromethyl)pyridin-2-yl]-6,7,8,9-tetrahydro-5H-pyrimido[4,5-d]azepin-4-yl}amino)phenyl]propanenitrile trifluoroacetic acid salt]
IC50: 1320 nM

FC(F)(F)c1ccc(Nc2nc(Sc3ccccc3)nc3c2CCN(c2ncccc2C(F)(F)F)CC3)cc1 [Example 349, 2-(Phenylsulfanyl)-N-[4-(trifluoromethyl)phenyl]-7-[3-(trifluoromethyl)pyridin-2-yl]-6,7,8,9-tetrahydro-5H-pyrimido[4,5-d]azepin-4-amine]
IC50: 2350 nM

O=S(=O)(c1ccc(Nc2nc(Sc3ccccc3)nc3c2CCN(c2ncccc2C(F)(F)F)CC3)cc1)C(F)(F)F [Example 350, 2-(Phenylsulfanyl)-7-[3-(trifluoromethyl)pyridin-2-yl]-N-{4-[(trifluoromethyl)sulfonyl]phenyl}-6,7,8,9-tetrahydro-5H-pyrimido[4,5-d]azepin-4-amine]
IC50: 30 nM

Cc1cc(C(F)(F)F)ccc1Nc1nc(Sc2ccccc2)nc2c1CCN(c1ncccc1C(F)(F)F)CC2 [Example 351, N-[2-Methyl-4-(trifluoromethyl)phenyl]-2-(phenylsulfanyl)-7-[3-(trifluoromethyl)pyridin-2-yl]-6,7,8,9-tetrahydro-5H-pyrimido[4,5-d]azepin-4-amine]
IC50: 750 nM

CN1CCC(C)(C)c2ccc(Nc3nc(Sc4ccccc4)nc4c3CCN(c3ncccc3C(F)(F)F)CC4)cc21 [Example 352, 2-(Phenylsulfanyl)-7-[3-(trifluoromethyl)pyridin-2-yl]-N-(1,4,4-trimethyl-1,2,3,4-tetrahydroquinolin-7-yl)-6,7,8,9-tetrahydro-5H-pyrimido[4,5-d]azepin-4-amine]
IC50: > 6670 nM

FC(F)(F)c1ccc(Nc2nc(SCc3ccccc3)nc3c2CCN(c2ncccc2C(F)(F)F)CC3)cc1 [Example 353, 2-[(Phenylmethyl)sulfanyl]-N-[4-(trifluoromethyl)phenyl]-7-[3-(trifluoromethyl)pyridin-2-yl]-6,7,8,9-tetrahydro-5H-pyrimido[4,5-d]azepin-4-amine]
IC50: 240 nM

FC(F)(F)c1ccc(Nc2nc(SC3CCCCC3)nc3c2CCN(c2ncccc2C(F)(F)F)CC3)cc1 [Example 354, 2-(Cyclohexylsulfanyl)-N-[4-(trifluoromethyl)phenyl]-7-[3-(trifluoromethyl)pyridin-2-yl]-6,7,8,9-tetrahydro-5H-pyrimido[4,5-d]azepin-4-amine]
IC50: 250 nM

CC(C)Sc1nc2c(c(Nc3ccc(C(F)(F)F)cc3)n1)CCN(c1ncccc1C(F)(F)F)CC2 [Example 355, 2-[(1-Methylethyl)sulfanyl]-N-[4-(trifluoromethyl)phenyl]-7-[3-(trifluoromethyl)pyridin-2-yl]-6,7,8,9-tetrahydro-5H-pyrimido[4,5-d]azepin-4-amine]
IC50: 60 nM

O=S(=O)(c1ccc(Nc2nc(SCc3ccccc3)nc3c2CCN(c2ncccc2C(F)(F)F)CC3)cc1)C(F)(F)F [Example 359, 2-[(Phenylmethyl)sulfanyl]-7-[3-(trifluoromethyl)pyridin-2-yl]-N-{4-[(trifluoromethyl)sulfonyl]phenyl}-6,7,8,9-tetrahydro-5H-pyrimido[4,5-d]azepin-4-amine]
IC50: 320 nM

O=S(=O)(c1ccc(Nc2nc(SC3CCCCC3)nc3c2CCN(c2ncccc2C(F)(F)F)CC3)cc1)C(F)(F)F [Example 360, 2-(Cyclohexylsulfanyl)-7-[3-(trifluoromethyl)pyridin-2-yl]-N-{4-[(trifluoromethyl)sulfonyl]phenyl}-6,7,8,9-tetrahydro-5H-pyrimido[4,5-d]azepin-4-amine]
IC50: 250 nM

CC(C)Sc1nc2c(c(Nc3ccc(S(=O)(=O)C(F)(F)F)cc3)n1)CCN(c1ncccc1C(F)(F)F)CC2 [Example 361, 2-[(1-Methylethyl)sulfanyl]-7-[3-(trifluoromethyl)pyridin-2-yl]-N-{4-[(trifluoromethyl)sulfonyl]phenyl}-6,7,8,9-tetrahydro-5H-pyrimido[4,5-d]azepin-4-amine]
IC50: 1530 nM

CC(O)CSc1nc2c(c(Nc3ccc(S(=O)(=O)C(F)(F)F)cc3)n1)CCN(c1ncccc1C(F)(F)F)CC2 (stereo not shown) [Example 362, 1-({7-[3-(Trifluoromethyl)pyridin-2-yl]-4-({4-[(trifluoromethyl)sulfonyl]phenyl}amino)-6,7,8,9-tetrahydro-5H-pyrimido[4,5-d]azepin-2-yl}sulfanyl)propan-2-ol]
IC50: 190 nM

Cc1cc(C(F)(F)F)ccc1Nc1nc(SCc2ccccc2)nc2c1CCN(c1ncccc1C(F)(F)F)CC2 [Example 364, N-[2-Methyl-4-(trifluoromethyl)phenyl]-2-[(phenylmethyl)sulfanyl]-7-[3-(trifluoromethyl)pyridin-2-yl]-6,7,8,9-tetrahydro-5H-pyrimido[4,5-d]azepin-4-amine]
IC50: 1180 nM

Source: patent US9422293B2 (priority 2006, dated 2016)
